Results from the supplement of paper PMC13380429.

What was measured:
Conditions in all cases: 72 h
Caco-2 [1] = assay: relative viability EC50 (midpoint between 100% and the lowest measured viability); higher = less toxic
Vero E6 [2] = assay: as above
U2OS [3] = assay: as above
Caco-2 [4] = assay: drug sensitivity score (DSS) for viability; higher = more toxic; extreme values may be limits of the assay
Vero E6 [5] = assay: as above
U2OS [6] = assay: as above
Calu-3 [7] = assay: as above
HepG2 [8] = assay: as above
Caco-2 [9] = assay: cell viability relative to DMSO; higher = less toxic
Vero E6 [10] = assay: as above
U2OS [11] = assay: as above
Calu-3 [12] = assay: as above
HepG2 [13] = assay: as above
HepG2 [14] = assay: relative viability EC50 (midpoint between 100% and the lowest measured viability); higher = less toxic

Row | SMILES | relative viability EC50 (Caco-2 [1]) | relative viability EC50 (Vero E6 [2]) | relative viability EC50 (U2OS [3]) | drug sensitivity score (Caco-2 [4]) | drug sensitivity score (Vero E6 [5]) | drug sensitivity score (U2OS [6]) | drug sensitivity score (Calu-3 [7]) | drug sensitivity score (HepG2 [8]) | cell viability (Caco-2 [9]; 1 nM) | cell viability (Caco-2 [9]; 10 nM) | cell viability (Caco-2 [9]; 100 nM) | cell viability (Caco-2 [9]; 1000 nM) | cell viability (Caco-2 [9]; 10000 nM) | cell viability (Vero E6 [10]; 1 nM) | cell viability (Vero E6 [10]; 10 nM) | cell viability (Vero E6 [10]; 100 nM) | cell viability (Vero E6 [10]; 1000 nM) | cell viability (Vero E6 [10]; 10000 nM) | cell viability (U2OS [11]; 1 nM) | cell viability (U2OS [11]; 10 nM) | cell viability (U2OS [11]; 100 nM) | cell viability (U2OS [11]; 1000 nM) | cell viability (U2OS [11]; 10000 nM) | cell viability (Calu-3 [12]; 1 nM) | cell viability (Calu-3 [12]; 10 nM) | cell viability (Calu-3 [12]; 100 nM) | cell viability (Calu-3 [12]; 1000 nM) | cell viability (Calu-3 [12]; 10000 nM) | cell viability (HepG2 [13]; 1 nM) | cell viability (HepG2 [13]; 10 nM) | cell viability (HepG2 [13]; 100 nM) | cell viability (HepG2 [13]; 1000 nM) | cell viability (HepG2 [13]; 10000 nM) | relative viability EC50 (HepG2 [14])
1 | CCc1cccc(CC)c1NC(=O)N1Cc2[nH]nc(NC(=O)c3ccc(N4CCN(C)CC4)cc3)c2C1 | > 10 µM | > 10 µM | 2.22 µM | 1.7 | 0 | 4.4 | 2.6 | 5.9 | 101% | 104% | 98.7% | 91.8% | 76.8% | 96.9% | 97.5% | 96.9% | 95.9% | 89.3% | 102% | 97.8% | 95.4% | 93.1% | 40% | 99.1% | 93.4% | 87.6% | 95% | 63% | 102% | 97.5% | 93.9% | 70.5% | 58.3% | –
2 | COc1ccc2c(c1)C=C1Cn3c-2c(C2CCCCC2)c2ccc(cc23)C(=O)NS(=O)(=O)N(C)CCOCCN(C)C1=O | > 10 µM | > 10 µM | > 10 µM | 0 | 0 | 0 | – | 0 | 93.7% | 91.1% | 99% | 102% | 94.2% | 101% | 97.3% | 96.3% | 102% | 95.3% | 102% | 100% | 95.8% | 96.5% | 95.3% | – | – | – | – | – | 97.3% | 93.5% | 106% | 97% | 105% | > 10 µM
3 | Cc1cccc(NC(=O)N[C@@H]2N=C(c3ccccc3)c3ccccc3N(C)C2=O)c1 | > 10 µM | > 10 µM | – | 0 | 0 | – | – | 0 | 105% | 106% | 100% | 110% | 97.2% | 111% | 102% | 109% | 101% | 93.6% | – | – | – | – | – | – | – | – | – | – | 111% | 109% | 110% | 106% | 92.5% | > 10 µM
4 | O=C1NC(=O)C(=Cc2ccc(-c3ccc(F)cc3)o2)S1 (stereo in doubt) | > 10 µM | > 10 µM | > 10 µM | 0 | 0.1 | 0 | – | 0 | 99.2% | 97.9% | 104% | 95.3% | 90.4% | 97.7% | 102% | 95.8% | 91.5% | 89.1% | 95.3% | 98.5% | 99.9% | 97.5% | 98.1% | – | – | – | – | – | 104% | 111% | 99.4% | 94% | 100% | > 10 µM
5 | Cl/C=C\C[N+]12CN3CN(CN(C3)C1)C2 [1-((Z)-3-chloroallyl)-1,3,5,7-tetraazaadamantan-1-ium] | > 10 µM | > 10 µM | > 10 µM | 0 | 0 | 0 | – | 0 | 96.3% | 97.9% | 91.5% | 97.4% | 95.8% | 99.5% | 99% | 99.4% | 95.5% | 104% | 94.5% | 99.8% | 94.7% | 102% | 97.5% | – | – | – | – | – | 102% | 104% | 109% | 102% | 97.7% | > 10 µM
6 | N#Cc1c(N)nc(SCC(N)=O)c(C#N)c1-c1ccc(OCC2CC2)cc1 [BAY-60-6583] | > 10 µM | > 10 µM | > 10 µM | 0 | 0 | 0 | – | 0 | 104% | 102% | 102% | 95.9% | 99.1% | 99.4% | 94.7% | 93.3% | 96.6% | 93.7% | 106% | 100% | 101% | 98.7% | 99.4% | – | – | – | – | – | 102% | 98.1% | 101% | 102% | 92.6% | > 10 µM
7 | Cc1noc(C)c1-c1cc(O)cc([C@@H](O)c2ccccc2)c1 [OXF-BD-02] | > 10 µM | 1.48 µM | – | 1.3 | 8 | 3.9 | 1.8 | 2.3 | 100% | 92% | 99.3% | 92.5% | 80.3% | 102% | 103% | 94.6% | 76.9% | 17% | 97.2% | 94.2% | 99.7% | 86.9% | 59.3% | 98.9% | 95.2% | 99.8% | 96.8% | 70.8% | 107% | 104% | 98.6% | 101% | 54.4% | –
